Measurements from patent publication US12570687B2, “Triterpenoid compounds, pharmaceutical compositions thereof, and their use for treating a nuclear receptor subfamily 4 group a member 1-mediated disease” (NUCMITO PHARMACEUTICALS COMPANY LIMITED, priority 2019, dated 2026).

Tests used:
Assay type in all cases: cell-based
HeLa (ovarian cancer) = experiment: MTT antiproliferative assay, HeLa; settings: Homo sapiens, 48 or 72 h, read-out: inhibition of cell growth, HELA
Method: (§1) The antiproliferative activity of a test compound was determined in cell lines: MDA-MB-231 (breast cancer), HepG2 (liver cancer), SW620 (colon cancer), A375 (malignant melanoma), A431 (epidermoid carcinoma), A549 (lung adenocarcinoma), and HeLa ([…]). MDA-MB-231, HepG2, SW480, SW620, A375, and A431 cells were cultured in Dulbecco's modified Eagle's medium (DMEM) containing 10% fetal bovine serum (FBS). HeLa cells were cultured in MEM/EBSS (MEM) containing 10% FBS. A549 cells were maintained in Kaighn's modification of Ham's F-12 medium containing 10% FBS. The colorimetric MTT (3-(4,5-dimethylthiazol-2-yl)-2,5-diphenyltetrazolium bromide) assay was used to measure the cell viability of different cells following treatment with the test compound.
(§2) Briefly cells were seeded in a 96 well plate at a density of 2,000-5,000 cells/well. Following attachment, the cells were treated with the test compound in media at various concentrations ranging from 0.137 to 100 μM or at a single concentration of 10 μM. After the cells were incubated at 37° C. for 48 or 72 h, MTT (20 μL, 5 mg/mL in PBS) was added to each well and the cells were incubated for another 4 h at 37° C. The supernatant was removed carefully and 150 μL of DMSO was added to each well to dissolve the MTT formazan crystals. The plate was shaken for 15-20 min and the absorbance value of each well was determined using a multi-well plate reader at 490 nm. The wells treated with DMSO were taken as a vehicle control. Data were also obtained similarly for all the replicates and the percentage viability was determined with respect to the DMSO-treated cells. The results are summarized in Table 1 below, wherein A represents no less than 80% inhibition of cell growth at 10 μM; B represents no less than 50% but less than 80% inhibition of cell growth at 10 μM; C represents no less than 30% but less than 50% inhibition of cell growth at 10 μM; and D represents less than 30% inhibition of cell growth at 10 μM.

SW620 (colon cancer) = experiment: MTT antiproliferative assay, SW620; settings: Homo sapiens, SW-620, SW620, 10 μM, 48 or 72 h, read-out: inhibition of cell growth, SW620
Method: as §1, §2

[1] = system: A549 (lung adenocarcinoma); experiment: MTT antiproliferative assay, A549; settings: Homo sapiens, A549, 10 μM, 48 or 72 h, read-out: inhibition of cell growth, A549
Method: as §1, §2

[2] = system: A431 (epidermoid carcinoma); experiment: MTT antiproliferative assay, A431; settings: Homo sapiens, A-431, A431, 10 μM, 48 or 72 h, read-out: inhibition of cell growth, A431
Method: as §1, §2

[3] = system: A375 (malignant melanoma); experiment: MTT antiproliferative assay, A375; settings: Homo sapiens, A-375, A375, 10 μM, 48 or 72 h, read-out: inhibition of cell growth, A375
Method: as §1, §2

HepG2 (liver cancer) = experiment: MTT antiproliferative assay, HepG2; settings: Homo sapiens, HepG2, 10 μM, 48 or 72 h, read-out: inhibition of cell growth, HepG2
Method: as §1, §2

[4] = system: MDA-MB-231 (breast cancer); experiment: MTT antiproliferative assay, MDA-MB-231; settings: Homo sapiens, MDA-MB-231, 10 μM, 48 or 72 h, read-out: inhibition of cell growth, MDA-MB-231
Method: as §1, §2

SMILES	inhibition at 10 µM (HeLa (ovarian cancer))	inhibition at 10 µM (SW620 (colon cancer))	inhibition at 10 µM [1]	inhibition at 10 µM [2]	inhibition at 10 µM [3]	inhibition at 10 µM (HepG2 (liver cancer))	inhibition at 10 µM [4]
CO[C@@]1(C)C2=CC=C3[C@@](C)(CC[C@@]4(C)[C@@H]5C[C@](C)(C#N)CC[C@]5(C)CC[C@]34C)C2=CC(=O)[C@@H]1O [Compound A62, (2R,4aS,6aS,9S,10R,12bR,14aS,14bR)-10-hydroxy-9-methoxy-2,4a,6a,9,12b,14a-hexamethyl-11-oxo-1,2,3,4,4a,5,6,6a,9,10,11,12b,13,14,14a,14b-hexadecahydropicene-2-carbonitrile]	< 30%	≥ 80%	30 to 50%	≥ 80%	30 to 50%	30 to 50%	30 to 50%
CO[C@@]1(C)C2=CC=C3[C@@](C)(CC[C@@]4(C)[C@@H]5C[C@](C)(C(=O)NO)CC[C@]5(C)CC[C@]34C)C2=CC(=O)[C@@H]1O [Compound A57, (2R,4aS,6aS,9S,10R,12bR,14aS,14bR)—N,10-dihydroxy-9-methoxy-2,4a,6a,9,12b,14a-hexamethyl-11-oxo-1,2,3,4,4a,5,6,6a,9,10,11,12b,13,14,14a,14b-hexadecahydropicene-2-carboxamide]	50 to 80%	≥ 80%	≥ 80%	≥ 80%	30 to 50%	≥ 80%	50 to 80%
CNC1(O)C(=O)C=C2C(=CC=C3[C@@]2(C)CC[C@@]2(C)[C@@H]4C[C@](C)(C(=O)OC)CC[C@]4(C)CC[C@]32C)[C@]1(C)OC (stereo partly drawn) [Compound A26, methyl (2R,4aS,6aS,9S,12bR,14aS,14bR)-10-hydroxy-9-methoxy-2,4a,6a,9,12b,14a-hexamethyl-10-(methylamino)-11-oxo-1,2,3,4,4a,5,6,6a,9,10,11,12b,13,14,14a,14b-hexadecahydropicene-2-carboxylate]	30 to 50%	30 to 50%	< 30%	30 to 50%	30 to 50%	30 to 50%	30 to 50%
CO[C@@]1(C)C2=CC=C3[C@@](C)(CC[C@@]4(C)[C@@H]5C[C@](C)(C(=O)N6CCOCC6)CC[C@]5(C)CC[C@]34C)C2=CC(=O)[C@@H]1O [Compound A56, (3R,4S,6bS,8aS,11R,12aR,12bS,14aR)-3-hydroxy-4-methoxy-4,6b,8a,11,12b,14a-hexamethyl-11-(morpholine-4-carbonyl)-4,6b,7,8,8a,9,10,11,12,12a,12b,13,14,14a-tetradecahydropicen-2(3H)-one]	50 to 80%	≥ 80%	≥ 80%	≥ 80%	30 to 50%	≥ 80%	50 to 80%
CO[C@]1(C)C(=O)C(=O)C=C2C1=CC=C1[C@@]2(C)CC[C@@]2(C)[C@@H]3C[C@](C)(C(=O)On4nnc5ccccc54)CC[C@]3(C)CC[C@]12C [Compound A6, 1H-1,2,3-benzotriazol-1-yl (2R,4aS,6aS,9S,12bR,14aS,14bR)-9-methoxy-2,4a,6a,9,12b,14a-hexamethyl-10,11-dioxo-1,2,3,4,4a,5,6,6a,9,10,11,12b,13,14,14a,14b-hexadecahydropicene-2-carboxylate]	≥ 80%	50 to 80%	50 to 80%	50 to 80%	30 to 50%	≥ 80%	50 to 80%
CC(=O)OC1(C)C(=O)C(=O)C=C2C1=CC=C1[C@@]2(C)CC[C@@]2(C)[C@@H]3C[C@](C)(C(=O)O)CC[C@]3(C)CC[C@]12C (stereo partly drawn) [Compound A3, (2R,4aS,6aS,12bR,14aS,14bR)-9-(acetyloxy)-2,4a,6a,9,12b,14a-hexamethyl-10,11-dioxo-1,2,3,4,4a,5,6,6a,9,10,11,12b,13,14,14a,14b-hexadecahydropicene-2-carboxylic acid]	50 to 80%	< 30%	50 to 80%	≥ 80%	< 30%	< 30%	< 30%
CO[C@]1(C)C(=O)C2(C=C3C1=CC=C1[C@@]3(C)CC[C@@]3(C)[C@@H]4C[C@](C)(C(=O)O)CC[C@]4(C)CC[C@]13C)OCCO2 [Compound A54, (4S,6bS,8aS,11R,12aR,12bS,14aR)-4-methoxy-4,6b,8a,11,12b,14a-hexamethyl-3-oxo-4,6b,7,8,8a,9,10,11,12,12a,12b,13,14,14a-tetradecahydro-3H-spiro[picene-2,2′-[1,3]dioxolane]-11-carboxylic acid]	< 30%	< 30%	< 30%	< 30%	< 30%	< 30%	< 30%
CO[C@@]1(C)C2=CC=C3[C@@](C)(CC[C@@]4(C)[C@@H]5C[C@](C)(C(=O)OCc6ccccc6)CC[C@]5(C)CC[C@]34C)C2=CC(=O)[C@@H]1O [Compound A16, benzyl (2R,4aS,6aS,9S,10R,12bR,14aS,14bR)-10-hydroxy-9-methoxy-2,4a,6a,9,12b,14a-hexamethyl-11-oxo-1,2,3,4,4a,5,6,6a,9,10,11,12b,13,14,14a,14b-hexadecahydropicene-2-carboxylate]	≥ 80%	≥ 80%	≥ 80%	≥ 80%	50 to 80%	≥ 80%	≥ 80%
CO[C@]1(C)C(=O)C(=O)C=C2C1=CC=C1[C@@]2(C)CC[C@@]2(C)[C@@H]3C[C@](C)(C(=O)OCc4ccccc4)CC[C@]3(C)CC[C@]12C [Compound A11, benzyl (2R,4aS,6aS,9S,12bR,14aS,14bR)-9-methoxy-2,4a,6a,9,12b,14a-hexamethyl-10,11-dioxo-1,2,3,4,4a,5,6,6a,9,10,11,12b,13,14,14a,14b-hexadecahydropicene-2-carboxylate]	≥ 80%	≥ 80%	< 30%	< 30%	50 to 80%	≥ 80%	≥ 80%
CCCC(=O)O[C@H]1C(O)C=C2C(=CC=C3[C@@]2(C)CC[C@@]2(C)[C@@H]4C[C@](C)(C(=O)OC)CC[C@]4(C)CC[C@]32C)[C@]1(C)OC (stereo partly drawn) [Compound A25, methyl (2R,4aS,6aS,9S,10S,12bR,14aS,14bR)-10-(butyryloxy)-11-hydroxy-9-methoxy-2,4a,6a,9,12b,14a-hexamethyl-1,2,3,4,4a,5,6,6a,9,10,11,12b,13,14,14a,14b-hexadecahydropicene-2-carboxylate]	< 30%	< 30%	< 30%	< 30%	< 30%	< 30%	< 30%
CO[C@@]1(C)C2=CC=C3[C@@](C)(CC[C@@]4(C)[C@@H]5C[C@](C)(C(=O)NO)CC[C@]5(C)CC[C@]34C)C2=CC2(O)OCCN=C21 (stereo partly drawn) [Compound A47, (2R,4aS,6aS,9S,14bR,16aS,16bR)—N,13a-dihydroxy-9-methoxy-2,4a,6a,9,14b,16a-hexamethyl-2,3,4,4a,5,6,6a,9,11,12,13a,14b,15,16,16a,16b-hexadecahydro-1H-piceno[2,3-b][1,4]oxazine-2-carboxamide]	≥ 80%	50 to 80%	≥ 80%	≥ 80%	30 to 50%	≥ 80%	≥ 80%
